Source: patent US6303596A, “Use of taurolidine for treatment of leukemias” (priority 2000, dated 2001)
Values joined by “and” are separate entries in the source; they are usually repeats but may differ in a detail not shown here. Identical values can stand only once.

Legend:
K562 = assay: TUNEL / propidium iodide flow cytometry, K562; type: cell-based, human; conditions: taurolidine 100 μg/ml or anisomycin 1 μg/ml for 4 h, mean ± SD
Protocol: (§1) In the second method, DNA fragmentation was detected via TUNEL assay according to the manufacturer's instructions. With this methodology, 2×10^6 cells were fixed with 2% paraformaldehyde, permeabilized with 0.1% Triton X-100/0.1% citrate, incubated at 37° C. with terminal deoxynucleotidyl transferase and FITC-dUTP, rinsed and analyzed by flow cytometry. Enhanced FITC signal indicates apoptosis-specific DNA fragmentation. Gavriali, et al, "Identification of programmed cell death in situ via specific labeling of nuclear DNA fragmentation," J Cell Biol 119:493 (1992). Parallel aliquots of unfixed cells were treated with PI and FITC-conjugated anti-CD14 and analyzed by flow cytometry, in order to identify cells with permeable cell membranes (since PI binds to DNA but is excluded from cells with intact plasma membranes) and also to determine the cell-specificity of the apoptotic signal.
(§2) In another study, TUNEL assays were performed on all cell lines 6 hours after cells were initially exposed to taurolidine (cells were treated for 4 hours, rinsed, and then incubated for 2 more hours before TUNEL assay was performed).
(§3) . Taurolidine and anisomycin induced apoptosis in MM6, HL-60, and Jurkat cells (Table VIII). MM6 and HL-60 cells were similarly effected, with >80% TUNEL-positive cells after 6 hours. Jurkat cells were less sensitive, with approximately 50% of cells induced to undergo apoptosis after taurolidine treatment. After 6 hours, 73% of anisomycin-treated REH cells were apoptotic, with less than 20% of taurolidine-treated REH cells being TUNEL-positive. However, assay of cells 24 hours after
(§4) ^a Analysis by flow cytometry after staining cells with propidium
(§5) iodide and processing for TUNEL.
(§6) Data are percent of total cell-size events, and are expressed as mean ±
(§7) Cells were treated for 4 hours with taurolidine (100 μg/ml) or
(§8) anisomycin (1 μg/ml), and then assayed at 6 hours.
(§9) Data are percent of total cell-sized events, and are expressed as mean ±
(§10) anisomycin (1 μg/ml), and then assayed at 24 hours.

MM6 = assay: TUNEL / propidium iodide flow cytometry, MM6; type: cell-based, human; conditions: MM6; taurolidine 100 μg/ml or anisomycin 1 μg/ml for 4 h, assayed at 6 hours; mean ± SD
Protocol: as §1
(§11) Consequently, TUNEL analysis was performed on PBMC at 3, 6, or 24 hours after treatment with 25 to 100 μg/ml taurolidine. Aliquots of harvested cells were also labeled with FITC-conjugated anti-CD14 antibodies and PI, which allowed identification of monocytes (CD14-positive cells) and cells with damaged cell membranes (PI-positive cells). […] Thus, nearly 75% of the monocytes were TUNEL-positive following treatment with 100 μg/ml taurolidine for six hours. Confirmation that the TUNEL-positive cells were monocytes was obtained by staining with FITC-conjugated anti-CD14.
as §2, §3, §4, §5, §6, §7, §8

ECV304 = assay: TUNEL / propidium iodide flow cytometry, ECV304; type: cell-based, human; conditions: ECV304; taurolidine 100 μg/ml or anisomycin 1 μg/ml for 4 h, assayed at 6 hours; mean ± SD
Protocol: as §1, §2
(§12) . Taurolidine and anisomycin induced apoptosis in MM6, HL-60, and Jurkat cells (Table VIII). MM6 and HL-60 cells were similarly effected, with >80% TUNEL-positive cells after 6 hours. […]
(§13) Data are percent of total cell-size events, and are expressed as mean ± […]

Jurkat = assay: TUNEL / propidium iodide flow cytometry, Jurkat; type: cell-based, human; conditions: taurolidine 100 μg/ml or anisomycin 1 μg/ml for 4 h, assayed at 6 hours, mean ± SD
Protocol: as §1, §2, §12, §13

Monocytes = assay: tissue or blood; type: cell-based, human
Protocol: (§14) FIGS. 15A, 15B, and 15C depict TUNEL analysis of PBMC treated with taurolidine in whole blood, for control cells, taurolidine-treated cells, and anisomycin-treated cells, respectively . Cells were incubated with 500 μg/ml taurolidine for 4 hours, resuspended in fresh medium, incubated for two hours further and processed for TUNEL analysis. Parallel samples were stained with FITC-conjugated anti-CD14 and PI as described herein. Ten thousand events were recorded per sample. TUNEL signal (x -axis) is a measure of DNA fragmentation, while FSC (y-axis) is related to cell size. TUNEL-negative lymphocytes are bounded by rectangle R 1, while TUNEL-negative monocytes (CD 14 positive cells) are bounded by rectangle R2. R3 bounds the TUNEL-positive population of cells. There were minimal numbers of PI-positive cells in 6 hour samples (see Table VI).
as §1
(§15) Taurolidine at 100 μg/ml induced apoptosis of approximately 75% of purified peripheral blood monocytes when these cells were incubated in culture medium. However, in order to more closely mimic the milieu of leukocytes in vivo, induction of apoptosis in PBMC by taurolidine was studied in whole blood (anticoagulated with heparin). As before, apoptosis was quantitated by measuring the loss of monocytes from a TUTNEL-negative (no DNA fragmentation), CD 14 positive population of cells which was concomitant with the appearance of a TUNEL-positive population of cells. Treatment of PBMC in whole blood resulted
(§16) in a shift of the taurolidine dose-response curve. […] As a positive control for induction of apoptosis, some cells were treated with anisomycin, a protein synthesis inhibitor known to induce apoptosis in monocytes.
(§17) ^a Analysis by flow cytometry after staining cells with PI and
(§18) processing for TUNEL. Data are mean ± SD of 2 experiments.
(§19) ^b Percent of cells present in the TUNEL-negative region in control

Lymphocytes = assay: tissue or blood; type: cell-based, human; conditions: whole blood
Protocol: as §14, §1, §15, §16, §17, §18, §19

REH = assay: TUNEL / propidium iodide flow cytometry, REH; type: cell-based, human; conditions: taurolidine 100 μg/ml or anisomycin 1 μg/ml for 4 h, mean ± SD
Protocol: as §1, §2, §3, §4, §5, §6, §7, §8, §9, §10

GM5387 = assay: TUNEL / propidium iodide flow cytometry, GM5387; type: cell-based, human; conditions: GM5387; taurolidine 100 μg/ml or anisomycin 1 μg/ml for 4 h, assayed at 6 hours; mean ± SD
Protocol: as §1, §2, §12, §13

HL-60 = assay: TUNEL / propidium iodide flow cytometry, HL-60; type: cell-based, human; conditions: HL-60; taurolidine 100 μg/ml or anisomycin 1 μg/ml for 4 h, assayed at 6 hours; mean ± SD
Protocol: as §1, §11, §2, §3, §4, §5, §6, §7, §8

TNFα = assay: LPS-induced TNFα expression/secretion by MM6 cells, ELISA; type: cell-based, human; conditions: MM6, taurine 44 μg/ml
Protocol: FIG. 3A and FIG. 3B are graphs depicting taurolidine inhibition of LPS-induced alpha […] (TNFα) expression by monocytic cells as determined by assay procedures. FIG. 3A represents MM6 cells; FIG. 3B represents PBMC. The cells were induced with LPS (hatched bars: 100 ng/ml LPS in RPMI+10% BCS; solid bars: 10 ng/ml in AIM-V+0.01% BCS) in the presence of varying concentrations of taurolidine. After four hours, cell supernatants were collected for TNFα ELISA. Data are expressed as percent of TNFα levels measured in cell cultures treated with LPS alone (no taurolidine or vehicle). Experiments were performed with duplicate samples and were repeated at least three times. Values shown in FIG. 3A are from a representative experiment. Values shown in FIG. 3B are mean±SEM of three experiments.
(§20) All cells were cultured in a 5% CO2 atmosphere at 37° C. MM6 cells were grown in RPMI supplemented with 10% BCS, 2 mM L-glutamine, and 50 μg/ml gentamicin (RPMI+10% BCS). In some experiments, MM6 cells were rinsed once with HBSS without Ca^++ or Mg^++ and once with AIM-V before finally being resuspended in AIM-V supplemented with 0.01% BCS (AIM-V+0.01% BCS). […] AIM-V was supplemented with a low amount of BCS (0.01%) in order to provide a source of LPS-binding protein, which enhances the response of monocytic cells to LPS. Ulevitch, R. J. and Tobias, P. S., "Recognition of endotoxin by cells leading to transmembrne signaling," Curr Opin Immunol 6:125 (1994). HL-60, REH, and Jurkat were cultured in RPMI supplemented with 10% heat inactivated fetal bovine serum (FBS), 2 mM L-glutamine, and 50 μg/ml gentamicin. ECV304 were cultured in M199 supplemented with 10% FBS, mM L-glutamine, and 50 μg/ml gentamicin. GM5387 was cultured in MEM supplemented with 20% FBS, 2 mM L-glutamine, and 50 μg/ml gentamicin.
For induction of TF or TNFα expression, MM6 cells or PBMC were cultured either in RPMI supplemented with 10% BCS or in AIM-V+0.01% BCS, and stimulated by adding LPS to final concentrations of 10 to 100 ng/ml. […]

tissue factor (TF) = assay: LPS-induced tissue factor (TF) expression in MM6 cells, ELISA; type: cell-based, human; conditions: MM6, taurine up to 0.5 mg/ml
Protocol: FIG. 2A represents MM6 cells; FIG. 2B represents PBMC. The cells were induced with LPS (hatched bars: 100 ng/ml LPS in RPMI supplemented with 10% BCS (RPMI+10% BCS); solid bars: 10 ng/ml in AIM-V+0.01% BCS) in the presence of varying concentrations of taurolidine,or with a dilution of the vehicle equivalent to that given to cells receiving 100 μg/ml taurolidine. After four hours, cells were collected and lysates were prepared for TF ELISA. Data are expressed as percent of TF antigen measured in cells treated with LPS alone (no taurolidine or vehicle). Experiments were performed with duplicate samples and were repeated at least three times. Values shown are mean±SEM of all experiments.
as §20, with “Ulevitch, R. J. and Tobias, P. S., "Recognition of endotoxin by cells leading to transmembrne signaling," Curr Opin Immunol 6:125 (1994).” left out
For induction of TF or TNFα expression, MM6 cells or PBMC were cultured either in RPMI supplemented with 10% BCS or in AIM-V+0.01% BCS, and stimulated by adding LPS to final concentrations of 10 to 100 ng/ml. […] Except as noted, taurolidine and LPS were added to the cell cultures simultaneously. For TF determination, cells and culture media together were treated by adding Triton X-100 (1% final) and EDTA (7 mmol/L final), and the resulting lysates assayed by ELISA. […] For TNFα determination, cells were removed by centrifugation for 5 min at 250×g, and the supernatants were assayed by ELISA.

human blood monocytes = conditions: cited from earlier work

COc1ccc(C[C@H]2NC[C@H](O)[C@H]2OC(C)=O)cc1 [anisomycin]
% propidium iodide positive (K562; assayed at 6 hours): 4.8 ± 3.1%
% TUNEL-positive (K562; assayed at 24 hours): 2.2 ± 6.2%
% propidium iodide (K562; assayed at 24 hours): 7.1 ± 2.3%
% TUNEL-positive (K562; assayed at 24 hours, listed as Anisomycin): less than 10%
% TUNEL-positive (MM6): > 80% and 92.0 ± 2.3%
% propidium iodide positive (MM6): 19.1 ± 5.4%
% propidium iodide positive (ECV304): 2.2 ± 3.1%
% TUNEL-positive (Jurkat): 69.6 ± 19.8%
% propidium iodide positive (Jurkat): 5.1 ± 3.4%
TUNEL-negative monocytes after anisomycin (Monocytes; PBMC in whole blood): loss of TUNEL-negative monocytes
TUNEL-positive cells after anisomycin (Monocytes; whole blood, 6 hour incubation, versus taurolidine): fewer TUNEL-positive cells
induction of apoptosis in lymphocytes (Lymphocytes): no evidence for a significant effect
% TUNEL-positive (REH; assayed at 6 hours): 73% and 72.9 ± 7.4%
% propidium iodide positive (REH; assayed at 6 hours): 18.4 ± 0.5%
% TUNEL-positive (REH; assayed at 24 hours): 53.0 ± 2.6%
% propidium iodide (REH; assayed at 24 hours): 51.6 ± 17.0%
% propidium iodide positive (GM5387): 5.4 ± 3.2%
% TUNEL-positive (HL-60): > 80% and 96.1 ± 6.8%
% propidium iodide positive (HL-60): 28.3 ± 15.3%

NCCS(=O)(=O)O [taurine]
effect on TNFα expression (TNFα): no effect on TNFα expression
effect on TF expression (tissue factor (TF)): no effect on TF expression

B1: IL-4: anti-inflammatory cytokine IL-4 (protein, UniProt P05112 25-153, looked up)
Interleukin-4: HKCDITLQEIIKTLNSLTEQKTLCTELTVTDIFAASKNTTEKETFCRAATVLRQFYSHHEKDTRCLGATAQQFHRHKQLIRFLKRLDRNLWGLAGLNSCPVKEANQSTLENFLERLKTIMREKYSKCSS
effect on apoptosis in LPS-stimulated monocytes (human blood monocytes): can enhance apoptosis
